This note sets out measurements from patent US8012956B2, “Tropane compounds” (Exelixis, Inc., priority 2007, dated 2011).

This assay addresses HSP90 (Homo sapiens, UniProt P07900). The experiment in a line: HSP90 inhibition (HSP90 IC50). It counts as biochemical.
As to `O=C(NCc1ccccc1)c1ccc(N2[C@@H]3CC[C@H]2C[C@@H](NC(=O)c2ccc(CO)cc2)C3)nc1` [6-[3-endo-({[4-(hydroxymethyl)phenyl]carbonyl}amino)-8-azabicyclo[3.2.1]oct-8-yl]-N-(phenylmethyl)pyridine-3-carboxamide], the IC50 (usually the concentration needed to halve the response being measured) is less than 500 nM.
The compound `O=C(NCc1cccnc1)c1ccc(N2[C@@H]3CC[C@H]2C[C@@H](NC(=O)c2ccc(CO)cc2)C3)nc1` [6-[3-endo-({[4-(hydroxymethyl)phenyl]carbonyl}amino)-8-azabicyclo[3.2.1]oct-8-yl]-N-(pyridin-3-ylmethyl)pyridine-3-carboxamide] displayed an IC50 of less than 500 nM.
`Cc1cnc(CNC(=O)c2ccc(N3[C@@H]4CC[C@H]3C[C@@H](NC(=O)c3ccc(CO)cc3)C4)nc2)cn1` [6-[3-endo-({[4-(hydroxymethyl)phenyl]carbonyl}amino)-8-azabicyclo[3.2.1]oct-8-yl]-N-[(5-methylpyrazin-2-yl)methyl]pyridine-3-carboxamide] returned an IC50 of less than 500 nM.
With `NC(=O)c1ccc(N2[C@@H]3CC[C@H]2C[C@@H](NC(=O)c2ccc(CO)cc2)C3)nc1` [6-[3-endo-({[4-(hydroxymethyl)phenyl]carbonyl}amino)-8-azabicyclo[3.2.1]oct-8-yl]pyridine-3-carboxamide] the figure was less than 500 nM; with `C[C@H](NC(=O)c1ccc(N2C3CCC2CC(NC(=O)c2cccc(N[C@H]4CC[C@H](O)CC4)c2)C3)nc1)c1ccc(N2CCN(C)CC2)cc1` (stereo partly drawn) [6-{3-endo-[({3-[(4-hydroxycyclohexyl)amino]phenyl}carbonyl)amino]-8-azabicyclo[3.2.1]oct-8-yl}-N-{(1S)-1-[4-(4-methylpiperazin-1-yl)phenyl]ethyl}pyridine-3-carboxamide], 2000 to 10000 nM.
Compound `N=C(N)c1ccc(C(=O)N[C@H]2C[C@H]3CC[C@@H](C2)N3c2ccc(C(=O)NCc3ccccc3)cn2)cc1` [6-{3-endo-[({4-[amino(imino)methyl]phenyl}carbonyl)amino]-8-azabicyclo[3.2.1]oct-8-yl}-N-(phenylmethyl)pyridine-3-carboxamide] yielded an IC50 of 2000 to 10000 nM.
The compound `COc1ccc([C@H](NC(=O)c2ccc(N3C4CCC3CC(NC(=O)c3cccc(OC)c3C)C4)nc2)C(=O)O)cc1` (stereo partly drawn) [(2S)-[({6-[3-endo-({[2-methyl-3-(methyloxy)phenyl]carbonyl}amino)-8-azabicyclo[3.2.1]oct-8-yl]pyridin-3-yl}carbonyl)amino][4-(methyloxy)phenyl]ethanoic acid] displayed a 50% inhibitory concentration (IC50) of 1000 to 2000 nM.
For `CCC(COC)Nc1cc(C(=O)N[C@H]2C[C@H]3CC[C@@H](C2)N3c2ccc(C(C)=O)cn2)ccc1C(N)=O` (stereo partly drawn) [N4-(8-(5-acetylpyridin-2-yl)-8-azabicyclo[3.2.1]oct-3-endo-yl]-2-({1-[(methyloxy)methyl]propyl}amino) benzene-1,4-dicarboxamide] the value was less than 500 nM; for `CC(=O)c1ccc(N2[C@@H]3CC[C@H]2C[C@@H](NC(=O)c2ccc(C(N)=O)c(NCC4CCCNC4)c2)C3)nc1` (stereo partly drawn) [N4-(8-(5-acetylpyridin-2-yl)-8-azabicyclo[3.2.1]oct-3-endo-yl]-2-[(piperidin-3-ylmethyl)amino]benzene-1,4-dicarboxamide], less than 500 nM; for `CC(C)[C@@H](C)Nc1cc(C(=O)NC2CC3CCC(C2)N3c2ccc(C(=O)C3CC3)cn2)ccc1C(N)=O` (stereo partly drawn) [N4-(8-[5-(cyclopropylcarbonyl)pyridin-2-yl]-8-azabicyclo[3.2.1]oct-3-endo-yl)-2-{[(1R)-1,2-dimethylpropyl]amino}benzene-1,4-dicarboxamide], less than 500 nM.
With `NC(=O)c1ccc(C(=O)NC2CC3CCC(C2)N3c2ccc(C(=O)NC3CCCC3)cn2)cc1N[C@H]1CC[C@H](O)CC1` (stereo partly drawn) [N4-(8-{5-((cyclopentylamino)carbonyl]pyridin-2-yl}-8-azabicyclo[3.2.1]oct-3-endo-yl)-2-[(4-trans-hydroxycyclohexyl)amino]benzene-1,4-dicarboxamide] the figure was less than 500 nM.
For `NC(=O)c1ccc(C(=O)NC2CC3CCC(C2)N3c2ccc(C(=O)NC3CCCC3)cn2)cc1NCC1CC1` (stereo not drawn) [N4-(8-{5-[(cyclopentylamino)carbonyl]pyridin-2-yl}-8-azabicyclo[3.2.1]oct-3-endo-yl)-2-[(cyclopropylmethyl)amino]benzene-1,4-dicarboxamide] the value was less than 500 nM; for `CS(=O)(=O)CCNc1cc(C(=O)N[C@H]2C[C@H]3CC[C@@H](C2)N3c2ccc(C(=O)NC3CCCC3)cn2)ccc1C(N)=O` [N4-(8-{5-[(cyclopentylamino)carbonyl]pyridin-2-yl}-8-azabicyclo[3.2.1]oct-3-endo-yl)-2-{[2-(methylsulfonyl)ethyl]amino}benzene-1,4-dicarboxamide], less than 500 nM; for `C[C@H](NC(=O)c1ccc(N2C3CCC2CC(NC(=O)c2ccc(C(N)=O)c(NCCN4CCOCC4)c2)C3)nc1)c1ccc(N2CCN(C)CC2)cc1` (stereo partly drawn) [N4-(8-{5-[({(1S)-1-[4-(4-methylpiperazin-1-yl)phenyl]ethyl}amino)carbonyl]pyridin-2-yl}-8-azabicyclo[3.2.1]oct-3-endo-yl)-2-[(2-morpholin-4-ylethyl)amino]benzene-1,4-dicarboxamide], less than 500 nM.
Compound `C[C@H](NC(=O)c1ccc(N2C3CCC2CC(NC(=O)c2ccc(C(N)=O)c(NCCS(C)(=O)=O)c2)C3)nc1)c1ccc(N2CCN(C)CC2)cc1` (stereo partly drawn) [N4-(8-{5-[({(1S)-1-[4-(4-methylpiperazin-1-yl)phenyl]ethyl}amino)carbonyl]pyridin-2-yl}-8-azabicyclo[3.2.1]oct-3-endo-yl)-2-{[2-(methylsulfonyl)ethyl]amino}benzene-1,4-dicarboxamide] yielded an IC50 of less than 500 nM.
Regarding `COc1cc(Nc2cc(C(=O)NC3CC4CCC(C3)N4c3ccc(C(=O)N[C@@H](C)c4ccc(N5CCN(C)CC5)cc4)cn3)ccc2C(N)=O)cc(OC)c1OC` (stereo partly drawn) [N4-(8-{5-[({(1S)-1-[4-(4-methylpiperazin-1-yl)phenyl]ethyl}amino)carbonyl]pyridin-2-yl}-8-azabicyclo[3.2.1]oct-3-endo-yl)-2-{[3,4,5-tris(methyloxy)phenyl]amino}benzene-1,4-dicarboxamide], the IC50 is less than 500 nM.
As for `C[C@H](NC(=O)c1ccc(N2[C@@H]3CC[C@H]2C[C@@H](NC(=O)c2ccc(C(N)=O)c(NC4CCN(S(C)(=O)=O)CC4)c2)C3)nc1)c1ccc(N2CCN(C)CC2)cc1` [N4-(8-{5-[({(1S)-1-[4-(4-methylpiperazin-1-yl)phenyl]ethyl}amino)carbonyl]pyridin-n-2-yl}-8-azabicyclo[3.2.1]oct-3-endo-yl)-2-{[1-(methylsulfonyl)piperidin-4-yl]amino}benzene-1,4-dicarboxamide], the IC50 was less than 500 nM.
For `CC(=O)c1ccc(N2[C@@H]3CC[C@H]2C[C@@H](NC(=O)c2ccc(C(N)=O)c(NCC(C)(C)C)c2)C3)nc1` [N4-[8-(5-acetylpyridin-2-y)-8-azabicyclo[3.2.1]oct-3-endo-yl]-2-[(2,2-dimethylpropyl)amino]benzene-1,4-dicarboxamide] the value was less than 500 nM; for `CCC(C)Nc1cc(C(=O)N[C@H]2C[C@H]3CC[C@@H](C2)N3c2ccc(C(C)=O)cn2)ccc1C(N)=O` (stereo partly drawn) [N4-[8-(5-acetylpyridin-2-yl)-8-azabicyclo[3.2.1]oct-3-endo-yl]-2-((1-methylpropyl)amino]benzene-1,4-dicarboxamide], less than 500 nM; for `CCCCNc1cc(C(=O)N[C@H]2C[C@H]3CC[C@@H](C2)N3c2ccc(C(C)=O)cn2)ccc1C(N)=O` [N4-[8-(5-acetylpyridin-2-yl)-8-azabicyclo[3.2.1]oct-3-endo-yl]-2-(butylamino)benzene-1,4-dicarboxamide], less than 500 nM.
With `CC(=O)c1ccc(N2[C@@H]3CC[C@H]2C[C@@H](NC(=O)c2ccc(C(N)=O)c(NC4CCCC4)c2)C3)nc1` [N4-[8-(5-acetylpyridin-2-yl)-8-azabicyclo[3.2.1]oct-3-endo-yl]-2-(cyclopentylamino)benzene-1,4-dicarboxamide] the figure was less than 500 nM.
For `CC(=O)c1ccc(N2[C@@H]3CC[C@H]2C[C@@H](NC(=O)c2ccc(C(N)=O)c(NC4CC4)c2)C3)nc1` [N4-[8-(5-acetylpyridin-2-yl)-8-azabicyclo[3.2.1]oct-3-endo-yl]-2-(cyclopropylamino)benzene-1,4-dicarboxamide] the value was less than 500 nM; for `CC(=O)c1ccc(N2[C@@H]3CC[C@H]2C[C@@H](NC(=O)c2ccc(C(N)=O)c(NC4CCCCC4)c2)C3)nc1` [N4-[8-(5-acetylpyridin-2-yl)-8-azabicyclo[3.2.1]oct-3-endo-yl]-2-(cyctohexylamino)benzene-1,4-dicarboxamide], less than 500 nM.
In the case of `CCNc1cc(C(=O)N[C@H]2C[C@H]3CC[C@@H](C2)N3c2ccc(C(C)=O)cn2)ccc1C(N)=O` [N4-[8-(5-acetylpyridin-2-yl)-8-azabicyclo[3.2.1]oct-3-endo-yl]-2-(ethylamino)benzene-1,4-dicarboxamide], the IC50 is less than 500 nM.
With `CC(=O)c1ccc(N2[C@@H]3CC[C@H]2C[C@@H](NC(=O)c2ccc(C(N)=O)c(Nc4ccccc4)c2)C3)nc1` [N4-[8-(5-acetylpyridin-2-yl)-8-azabicyclo[3.2.1]oct-3-endo-yl]-2-(phenylamino)benzene-1,4-dicarboxamide] the figure was less than 500 nM; with `CC(=O)c1ccc(N2[C@@H]3CC[C@H]2C[C@@H](NC(=O)c2ccc(C(N)=O)c(NN4CCCCC4)c2)C3)nc1` [N4-[8-(5-acetylpyridin-2-yl)-8-azabicyclo[3.2.1]oct-3-endo-yl]-2-(piperidin-1-ylamino)benzene-1,4-dicarboxamide], less than 500 nM.
For `CC(=O)c1ccc(N2[C@@H]3CC[C@H]2C[C@@H](NC(=O)c2ccc(C(N)=O)c(NC4CCNCC4)c2)C3)nc1` [N4-[8-(5-acetylpyridin-2-yl)-8-azabicyclo[3.2.1]oct-3-endo-yl]-2-(piperidin-4-ylamino)benzene-1,4-dicarboxamide] the value was less than 500 nM.
For `CCCNc1cc(C(=O)N[C@H]2C[C@H]3CC[C@@H](C2)N3c2ccc(C(C)=O)cn2)ccc1C(N)=O` [N4-[8-(5-acetylpyridin-2-yl)-8-azabicyclo[3.2.1]oct-3-endo-yl]-2-(propylamino)benzene-1,4-dicarboxamide] the value was less than 500 nM.
